Measurements from US12180143B1, “8-((4-hydroxy-3-methoxyphenyl)diazenyl)naphthalene-1,3-disulfonic acid as an antioxidant compound” (KING FAISAL UNIVERSITY, priority 2023, dated 2024).

Test: DPPH radical scavenging antioxidant test
Format: biochemical
Settings: 517 nm; for Inhibition (radical scavenging inhibition): 0.2 mL DPPH (0.75 mM), compound 3 μM in ethanol, 30 min incubation in the dark
Description: The antioxidant properties of the 8-((4-hydroxy-3-methoxyphenyl)diazenyl) naphthalene-1,3-disulfonic acid were studied by adding 0.2 mL DPPH (0.75 mM)) to compound 8-((4-hydroxy-3-methoxyphenyl)diazenyl) naphthalene-1,3-disulfonic acid (III) (3 μM) in ethanol. After 30 min of incubation in the dark, the absorbance was read against a blank at 517 nm. Ascorbic acid (vitamin C) was used as standard antioxidants (positive control). A blank sample was prepared by 0.2 ml of DPPH in 3 mL ethanol. A negative control sample was run using ethanol instead of the sample. The radical scavenging inhibition was calculated using the following equation: […]

Compound | Inhibition (radical scavenging inhibition) | antioxidant potential to vanish the DPPH radical distinctive colors, compared to vitamin C (DPPH in vitro test, vitamin C as positive control)
O=C1O[C@H]([C@@H](O)CO)C(O)=C1O [vit c, Ascorbic acid, reference compound] | 74% | 
COc1cc(/N=N/c2cccc3cc(S(=O)(=O)O)cc(S(=O)(=O)O)c23)ccc1O [Product III, 8-((4-hydroxy-3-methoxyphenyl)diazenyl) naphthalene-1,3-disulfonic acid] | 48% | high potential as an antioxidant compared to vitamin C
